In US20070099259A1, “ELECTROCHEMICAL ASSAY FOR THE IDENTIFICATION OF MICROORGANISMS” (RAPID LABORATORY MICROSYSTEMS INC., priority 2003, published 2007) one finds activity and relative %-respiratory activity data, which are given here for eleven molecules.

Holding throughout (test): Relative respiratory activity with 22 effectors (Example 3)
Test [1] concerns E. aerogenes ATCC13048e. Format: cell-based, Enterobacter aerogenes. The conditions noted are these: for activity at 20000 µM: effector 20 mM; for activity at 10000 µM: read-out: relative %-respiratory activity. From the text: (§1) In this example, each microorganism is subjected to 22 different effector compounds in addition to control measurements. […] For each microorganism, duplicate measurements were made of 22 different effector compounds. In addition, duplicate measurements were made a control test containing no effector compound. One additional measurement was made of a control solution containing the microorganism with ferricyanide but without effector or DCIP.
(§2) In this example, each normalized data set containing duplicate measurements for each of 22 effector compounds is referenced to the duplicate internal controls to allow batch-to-batch comparison. The obtained signals of charge per unit electrode area for the duplicate control measurements are averaged and set at 100% respiratory cycle activity. […] The data set used to generate pattern recognition plots consists of 5 replicate batches (each batch containing duplicate measurements for each of 22 effector compounds) for each cell culture (10 strains). This is used to generate a 50 (columns)×22 (rows) matrix. The matrix is imported into MATLAB (Version 6.0). Factor analysis is performed using the MATLAB Chemometric Toolbox (Version 2.3) and involves the generation of reduced eigenvectors to determine the optimal number of factors, examination of the resulting residuals plots for randomness, and the generation of scores for the first four principle components.

Test [2] deals with S. aureus ATCC6538P. It is filed as cell-based, Staphylococcus aureus. The conditions noted are these: for activity at 20000 µM: effector 20 mM; for activity at 10000 µM: read-out: relative %-respiratory activity.
Description: as §1, §2

Test [3] concerns P. aeruginosa. It is filed as cell-based, Pseudomonas aeruginosa. The conditions noted are these: for activity at 20000 µM: effector 20 mM; for activity at 10000 µM: read-out: relative %-respiratory activity.
Description: as §1, §2

For test [4], the system named is E. faecalis. Format: cell-based, Enterococcus faecalis. The conditions noted are these: for activity at 20000 µM: effector 20 mM; for activity at 10000 µM: read-out: relative %-respiratory activity.
Description: as §1, §2

Test [5] relates to E. coli Neotype. It is filed as cell-based. The conditions noted are these: for activity at 20000 µM: effector 20 mM; for activity at 10000 µM: read-out: relative %-respiratory activity.
Description: as §1, §2

For test [6], the system named is E. coli B. Format: cell-based. The conditions noted are these: for activity at 20000 µM: effector 20 mM; for activity at 10000 µM: read-out: relative %-respiratory activity.
Description: as §1, §2

For test [7], the system named is E. coli JM105. It is filed as cell-based. The conditions noted are these: for activity at 20000 µM: effector 20 mM.
Description: as §1, §2

The subject of test [8] is E. coli HB101. It is filed as cell-based. The conditions noted are these: for activity at 20000 µM: effector 20 mM.
Description: as §1, §2

Test [9] deals with P. vulgaris ATCC6380. Format: cell-based, Proteus vulgaris. The conditions noted are these: for activity at 20000 µM: effector 20 mM.
Description: as §1, §2

In test [10] the test system is S. cerevisiae. It is filed as cell-based, Saccharomyces cerevisiae. The conditions noted are these: for activity at 20000 µM: effector 20 mM; for activity at 10000 µM: read-out: relative %-respiratory activity.
Description: as §1, §2

The mark [11] stands for this setting: Klebsiella aerogenes, ATCC13048E, 5 μM DCIP, no effector = 100%, n = 26.
[12] abbreviates: Staphylococcus aureus, ATCC6538P, 5 μM DCIP, no effector = 100%, n = 20.
Where [13] appears, read: Pseudomonas aeruginosa, 5 μM DCIP, no effector = 100%, n = 18.
[14] abbreviates: Enterococcus faecalis, 5 μM DCIP, no effector = 100%, n = 20.
Where [15] appears, read: Escherichia coli, 5 μM DCIP, no effector = 100%, n = 26.
The mark [16] stands for this setting: Escherichia coli, 5 μM DCIP, no effector = 100%, n = 10.
Where [17] appears, read: Escherichia coli, JM105, 5 μM DCIP, no effector = 100%, n = 10.
Setting [18] is: Escherichia coli, HB101, 5 μM DCIP, no effector = 100%, n = 18.
[19] abbreviates: Proteus vulgaris, ATCC6380, 5 μM DCIP, no effector = 100%, n = 20.
Where [20] appears, read: Saccharomyces cerevisiae, 5 μM DCIP, no effector = 100%, n = 10.
Setting [21] is: Klebsiella aerogenes, ATCC13048E.
Where [22] appears, read: Staphylococcus aureus, ATCC6538P.
The mark [23] stands for this setting: Escherichia coli, JM105, read-out: relative %-respiratory activity.
Setting [24] is: Escherichia coli, HB101, read-out: relative %-respiratory activity.
Where [25] appears, read: Proteus vulgaris, ATCC6380, read-out: relative %-respiratory activity.
[26] abbreviates: effector 10 mM, 5 μM DCIP, no effector = 100%, n = 26.
The mark [27] stands for this setting: effector 10 mM, 5 μM DCIP, no effector = 100%, n = 20.
[28] abbreviates: effector 10 mM, 5 μM DCIP, no effector = 100%, n = 18.
The mark [29] stands for this setting: effector 10 mM, 5 μM DCIP, no effector = 100%, n = 10.

Structures are written as SMILES. Where two headings read alike, the source gives them in different places.

Consider `O=C[C@@H](O)[C@H](O)[C@H](O)CO` [D-arabinose], for which the activity at 20000 µM in test [1] (setting [11]) is 106%; in test [2] (setting [12]), 115%; in test [3] (setting [13]), 113%; in test [4] (setting [14]), 139%; in test [5] (setting [15]) it was 103%; in test [6] (setting [16]) it was 118%. Besides, the activity at 20000 µM stood at 137% in test [7] (setting [17]), 107% in test [8] (setting [18]), 150% in test [9] (setting [19]) and 143% in test [10] (setting [20]).
Regarding `OC[C@H]1O[C@@](CO)(O[C@H]2O[C@H](CO)[C@@H](O)[C@H](O)[C@H]2O)[C@@H](O)[C@@H]1O` [Sucrose], the activity at 20000 µM was found to be 188% in test [1] (setting [11]); 290% in test [2] (setting [12]); 117% in test [3] (setting [13]); 465% in test [4] (setting [14]); 122% in test [5] (setting [15]); 124% in test [6] (setting [16]). Further, the activity at 20000 µM was 121% in test [7] (setting [17]), 110% in [8] (setting [18]), 164% in [9] (setting [19]) and 161% in test [10] (setting [20]).
As to `N[C@@H](Cc1c[nH]c2ccccc12)C(=O)O` [L-tryptophan], the activity at 10000 µM in [1] (setting [21]) stood at 126%; in test [2] (setting [22]), 139%; in test [3] (Pseudomonas aeruginosa), 170%; in test [4] (Enterococcus faecalis), 232%; in [5] (Escherichia coli) it was 93%; in [6] (Escherichia coli, effector 10 mM, 5 μM DCIP, no effector = 100%, n = 10), 98%. The activity at 10000 µM in test [7] (setting [23]) was 133%; in test [8] (setting [24]), 129%; in test [9] (setting [25]), 521%; in test [10] (Saccharomyces cerevisiae) it was 188%.
As for `O=C(O)CCC(=O)C(=O)O` [Alpha-ketoglutarate], the relative %-respiratory activity was determined as 102% in [1] (setting [26]); 115% in test [2] (setting [27]); 97% in test [3] (setting [28]); 109% in test [4] (setting [27]); 100% in test [5] (setting [26]); 130% in test [6] (setting [29]). Moreover, the relative %-respiratory activity in [7] (setting [29]) came to 142%; in test [8] (setting [28]), 116%; in test [9] (setting [27]), 201%; in test [10] (setting [29]), 124%.
Regarding `NCCCC[C@H](N)C(=O)O` [L-lysine], the activity at 10000 µM in test [1] (setting [21]) is 125%; in test [2] (setting [22]) it was 159%; in test [3] (Pseudomonas aeruginosa), 186%; in test [4] (Enterococcus faecalis), 243%; in [5] (Escherichia coli), 101%; in test [6] (Escherichia coli), 100%. The activity at 10000 µM amounted to 118% in test [7] (setting [23]), 125% in test [8] (setting [24]), 219% in [9] (setting [25]) and 240% in test [10] (Saccharomyces cerevisiae).
As for `O=P(O)(O)OC(CO)CO` [Beta-glycerophosphate], the relative %-respiratory activity in test [1] (setting [26]) amounted to 131%; in [2] (setting [27]) it was 114%; in test [3] (setting [28]) it was 114%; in test [4] (setting [27]), 120%; in test [5] (setting [26]), 108%; in test [7] (setting [29]) it was 121%. Further, the relative %-respiratory activity is 110% in [8] (setting [28]), 136% in test [9] (setting [27]) and 105% in [10] (setting [29]).
In the case of `O=C[C@H](O)[C@@H](O)[C@H](O)CO` [D-xylose], the activity at 20000 µM in test [1] (setting [11]) was found to be 149%; in test [2] (setting [12]), 128%; in test [3] (setting [13]), 113%; in test [4] (setting [14]), 128%; in test [5] (setting [15]) it was 110%; in test [6] (setting [16]), 102%. For the same molecule, the activity at 20000 µM in test [7] (setting [17]) turned out to be 134%; in test [8] (setting [18]) it was 110%; in test [9] (setting [19]), 178%; in test [10] (setting [20]), 116%.
Turning to `O=C(O)CC(=O)O` [Malonic acid], the activity at 10000 µM amounted to 156% in [1] (Klebsiella aerogenes, ATCC13048E, effector 10 mM, 5 μM DCIP, no effector = 100%, n = 26); 117% in [2] (Staphylococcus aureus, ATCC6538P, effector 10 mM, 5 μM DCIP, no effector = 100%, n = 20); 125% in [3] (Pseudomonas aeruginosa, effector 10 mM, 5 μM DCIP, no effector = 100%, n = 18); 146% in [4] (Enterococcus faecalis, effector 10 mM, 5 μM DCIP, no effector = 100%, n = 20); 141% in [5] (Escherichia coli, effector 10 mM, 5 μM DCIP, no effector = 100%, n = 26); 160% in test [7] (Escherichia coli, JM105, effector 10 mM, 5 μM DCIP, no effector = 100%, n = 10, read-out: relative %-respiratory activity). Moreover, the activity at 10000 µM in test [8] (Escherichia coli, HB101, effector 10 mM, 5 μM DCIP, no effector = 100%, n = 18, read-out: relative %-respiratory activity) is 124%; in [9] (Proteus vulgaris, ATCC6380, effector 10 mM, 5 μM DCIP, no effector = 100%, n = 20, read-out: relative %-respiratory activity), 125%; in [10] (Saccharomyces cerevisiae, effector 10 mM, 5 μM DCIP, no effector = 100%, n = 10), 110%.
On to `O=CO` [Formic acid], for which the activity at 10000 µM amounted to 124% in test [1] (setting [21]); 298% in test [2] (setting [22]); 120% in test [3] (Pseudomonas aeruginosa); 157% in [4] (Enterococcus faecalis); 114% in test [5] (Escherichia coli); 132% in test [6] (Escherichia coli). Further, the activity at 10000 µM is 136% in test [7] (setting [23]), 163% in [8] (setting [24]), 222% in test [9] (setting [25]) and 132% in test [10] (Saccharomyces cerevisiae).
In the case of `O=C[C@H](O)[C@@H](O)[C@@H](O)[C@H](O)CO` [D-galactose], the activity at 20000 µM is 334% in test [1] (setting [11]); 195% in [2] (setting [12]); 130% in test [3] (setting [13]); 200% in test [4] (setting [14]); 155% in test [5] (setting [15]); 165% in test [6] (setting [16]). Further, the activity at 20000 µM in test [7] (setting [17]) came out at 173%; in test [8] (setting [18]), 153%; in test [9] (setting [19]) it was 341%; in [10] (setting [20]), 143%.
Regarding `OC[C@@H](O)[C@@H](O)[C@H](O)[C@@H](O)CO` [D-sorbitol], the activity at 30000 µM in [1] (Klebsiella aerogenes, ATCC13048E, effector 30 mM, 5 μM DCIP, no effector = 100%, n = 26) is 260%; in [2] (Staphylococcus aureus, ATCC6538P, effector 30 mM, 5 μM DCIP, no effector = 100%, n = 20), 167%; in [3] (Pseudomonas aeruginosa, effector 30 mM, 5 μM DCIP, no effector = 100%, n = 18), 104%; in test [4] (Enterococcus faecalis, effector 30 mM, 5 μM DCIP, no effector = 100%, n = 20), 179%; in test [5] (Escherichia coli, effector 30 mM, 5 μM DCIP, no effector = 100%, n = 26), 111%; in [6] (Escherichia coli, effector 30 mM, 5 μM DCIP, no effector = 100%, n = 10), 136%. The activity at 30000 µM in test [7] (Escherichia coli, JM105, effector 30 mM, 5 μM DCIP, no effector = 100%, n = 10) is 168%; in test [8] (Escherichia coli, HB101, effector 30 mM, 5 μM DCIP, no effector = 100%, n = 18), 124%; in test [9] (Proteus vulgaris, ATCC6380, effector 30 mM, 5 μM DCIP, no effector = 100%, n = 20), 186%; in [10] (Saccharomyces cerevisiae, effector 30 mM, 5 μM DCIP, no effector = 100%, n = 10), 113%.
